≈ marks a conversion by molar mass, not a printed value.
Tests used:
CYP3A4 = target: T1, CYP3A4 (Homo sapiens, UniProt P08684); assay: CYP inhibition assay in human liver microsomes (3A4, midazolam); type: in vitro ADME; details: for inhibition at 5 min, 10 µM: probe midazolam, human liver microsomes, midazolam
T1 construct: Human liver microsomes were obtained from BD Gentest; tissue BD Gentest; host or cells: human liver microsomes
Protocol: (§1) Compounds were tested to evaluate their inhibitory potential on CYP2D6 and CYP3A4 (midazolam) using human liver microsomes. Human liver microsomes were obtained from BD Gentest, and each compound was run in duplicate.
(§2) The test compounds and reference inhibitors (quinidine for 2D6, ketoconazole for 3A4) were plated in a 96-well plate by transferring 8 μL of 10 mM stock solutions of compound in DMSO to 12 μL of acetonitrile. Individual inhibitor spiking solutions were prepared for CYP2D6 and CYP3A4 (8 μL of DMSO stock added to 12 μL of acetonitrile). Next added 400 μL of 0.2 mg/mL HLM to the assay wells and then added 2 μL of 400× test compound into the designated wells on ice. Next, added 200 μL of 0.2 mg/mL HLM to the assay wells and then added 1 μL of reference inhibitor solutions into the designated wells. The following solutions were added (in duplicate) to a 96-well assay plate on ice: The test compounds and reference inhibitors (quinidine for 2D6, ketoconazole for 3A4) were tested using the following experimental procedure:
(§3) 10. Incubate the assay plate at 37° C. 5 min for 3A4, 10 min for 2D6.
(§4) 11. Stop the reaction by adding 120 μL of ACN containing Internal Standard. For CYP3A4, the internal standard is 1′OH-midazolam-D4 (10 μM solution diluted to a final concentration of 0.1 μM by adding 100 μL internal standard stock to 10 mL ACN). For CYP2D6, the internal standard is 1-OH-Bufuralol-maleate-[D9] (49 μM solution diluted to a final concentration of 0.1 μM by adding 20 μL internal standard stock to 10 mL ACN).
(§5) The assessment on CYP isoform inhibition is as follows based on the assay results: if percentage of CYP inhibition is higher than 50%, indicates potent inhibition; if percentage of CYP inhibition is between 30-50%, indicates […]; if percentage of CYP inhibition is less than 30%, indicates slight or no inhibition. If the percentage of CYP inhibition is less than −30%, this indicates the compound may have some kind of activation of this isoform.

[1] = Aqueous kinetic solubility measurement; type: physicochemical; details: for solubility at 1 h: aqueous buffer, kinetic from dmso stock, kinetic, 100 mM phosphate buffer pH 7.4, 1% DMSO
Protocol: Compounds were evaluated for their kinetic solubility in buffer or water. Aliquots of 8 μL of reference and test compound stock solutions (10 mM in DMSO) were added into 792 μL of 100 mM phosphate buffer (0.1 M NaPO4, pH 7.4). Final DMSO concentration is 1%. The sample tubes were shaken for 1 hour (1000 rpm) at room temperature. A calibration curve was prepared using 300 μM spiking solution (SS) in MeOH/ACN(4:1) (SS=add 6 μL 10 mM compound in 194 μL MeOH/ACN(4:1)). Samples were centrifuged for 10 min (12000 rpm) to precipitate undissolved particles, and the supernatants were transferred to a new tube or plate. Supernatants were diluted 10 times and 100 times with 100 mM buffer. Samples were then prepared for analysis by LC-MS/MS (Add 5 μL of compound samples (not diluted, 10 times diluted and 100 times diluted) and standard curve samples to 95 μL of ACN containing internal standard. Internal standards used are Propranolol, Ketoconazole, and Tamoxifen.

HDAC2 [2] = target: T2, HDAC2 (Homo sapiens, UniProt Q92769); assay: HDAC2 enzymatic inhibition assay in SY5Y cell lysate with HDAC-Glo2 substrate; type: cell-based; parameters: host or cells: SH-SY5Y; details: SH-SY5Y cells, 5 h compound incubation, HDAC-Glo 2 reagent
T2 sequence (Q92769 whole entry): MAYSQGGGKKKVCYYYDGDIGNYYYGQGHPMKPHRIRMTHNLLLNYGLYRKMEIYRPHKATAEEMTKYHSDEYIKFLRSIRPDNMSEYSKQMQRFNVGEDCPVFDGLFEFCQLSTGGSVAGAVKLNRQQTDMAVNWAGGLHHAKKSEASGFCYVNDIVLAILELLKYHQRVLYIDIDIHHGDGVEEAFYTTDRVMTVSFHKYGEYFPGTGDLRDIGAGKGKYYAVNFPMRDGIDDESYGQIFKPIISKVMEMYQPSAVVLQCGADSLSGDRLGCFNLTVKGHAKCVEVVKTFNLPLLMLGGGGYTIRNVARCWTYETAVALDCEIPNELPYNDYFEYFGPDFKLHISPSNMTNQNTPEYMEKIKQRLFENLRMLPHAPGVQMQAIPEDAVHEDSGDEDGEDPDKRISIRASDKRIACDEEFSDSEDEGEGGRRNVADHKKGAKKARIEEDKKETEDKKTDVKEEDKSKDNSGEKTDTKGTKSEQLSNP
Protocol: HDAC2 Enzymatic Inhibition Assay in SY5Y Cell Lysate with HDAC-Glo2 Substrate
SH-SY5Y cells (Sigma) were cultured in Eagle's Modified Essential Medium supplemented with 10% fetal bovine serum and pen/strep. Twenty-four hours prior to compound dosing 20 uL of cells were plated in white 384 well plates at a density of 1,500 cells/well. Compounds were serially diluted in neat DMSO and then diluted 1:100 v/v into media without FBS and mixed. Media was removed from the plated cells and the diluted compounds in serum free media (1% v/v final DMSO) were added and incubated at 37.0 for five hours. Ten uL of HDAC-Glo 2 reagent with 0.1% Triton X-100 was then added, the plate was mixed and allowed to develop at room temperature for 100 minutes. Plates were then read with a Spectramax LMax luminometer employing a 0.4 s integration time. Dose response curves were constructed with normalized data where CI-994 at 100 uM was defined as 100% inhibition and DMSO alone as 0% inhibition.

CYP2D6 = target: T3, CYP2D6 (Homo sapiens, UniProt P10635); assay: CYP inhibition assay in human liver microsomes (2D6); type: in vitro ADME; details: for inhibition of CYP2D6 (in words): 10 μM; for inhibition at 10 min, 10 µM: human liver microsomes
T3 construct: Human liver microsomes were obtained from BD Gentest; tissue BD Gentest; host or cells: human liver microsomes
T3 sequence (P10635 whole entry): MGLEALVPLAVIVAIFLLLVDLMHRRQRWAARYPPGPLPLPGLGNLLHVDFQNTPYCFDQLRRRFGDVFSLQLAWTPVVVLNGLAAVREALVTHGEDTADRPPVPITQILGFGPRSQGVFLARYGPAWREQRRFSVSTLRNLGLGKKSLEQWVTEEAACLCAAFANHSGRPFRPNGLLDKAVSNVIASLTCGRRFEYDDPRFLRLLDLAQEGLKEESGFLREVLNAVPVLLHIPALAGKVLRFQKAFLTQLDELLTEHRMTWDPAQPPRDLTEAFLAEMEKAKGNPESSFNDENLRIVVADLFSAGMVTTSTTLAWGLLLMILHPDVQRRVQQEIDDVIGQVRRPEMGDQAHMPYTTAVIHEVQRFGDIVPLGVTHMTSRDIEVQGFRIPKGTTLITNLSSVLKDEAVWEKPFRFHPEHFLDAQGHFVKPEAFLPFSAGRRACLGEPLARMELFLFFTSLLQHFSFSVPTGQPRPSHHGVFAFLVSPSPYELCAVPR
Protocol: as §1, §2, §3, §4, §5

HDAC2 [3] = target: T2, HDAC2; assay: HDAC2 recombinant enzymatic assay; type: biochemical; parameters: purchased BPS Bioscience; details: 5 h pre-incubation, 5 nM enzyme; read-out: HDAC recombinant enzymatic IC50 HDAC2
Protocol: (§6) The following describes an assay protocol for measuring the deacetylation of a peptide substrate by the enzymes HDAC2 or HDAC1.
(§7) All recombinant human HDACs were purchased from BPS Bioscience. The substrate, FAM-TSRHK(AC)KL-CONH, was synthesized at NanoSyn. Final assay reactions contained 100 mM HEPES (pH 7.5), 50 mM KCl, 0.1% BSA, 0.01% Triton X-100, 1% DMSO, 1 uM substrate and 5 nM HDAC enzyme. Enzyme and compounds were pre-incubated at 25° C. for 5 hours and reactions were initiated by addition of substrate. 10 uL reactions were incubated for 17 hours at 25° C. and terminated by the addition of 40 uL of buffer containing 100 mM HEPES (pH 7.5), 0.1% BSA, 0.01% Triton X-100 and 0.05% SDS. Substrate and product peptides present in each sample were separated electrophoretically using the LabChip 3000 capillary electrophoresis instrument. Change in the relative fluorescence intensity of the substrate and product peaks reflects enzyme activity. Reaction progress was determined as the product to sum ratio (PSR):P/(S+P), where P is the peak height of the product peptide and S is the peak height of the substrate peptide. Reactions were performed in duplicate at 12 concentrations, (3× serial dilutions starting at 30 uM). IC50 values were calculated using a 4 Parameter Logistic Model.

HDAC1 = target: T4, HDAC1 (Homo sapiens, UniProt Q13547); assay: HDAC1 recombinant enzymatic assay; type: biochemical; details: 5 h pre-incubation, 5 nM enzyme; read-out: HDAC recombinant enzymatic IC50 HDAC1
T4 construct: purchased BPS Bioscience
T4 sequence (Q13547 whole entry): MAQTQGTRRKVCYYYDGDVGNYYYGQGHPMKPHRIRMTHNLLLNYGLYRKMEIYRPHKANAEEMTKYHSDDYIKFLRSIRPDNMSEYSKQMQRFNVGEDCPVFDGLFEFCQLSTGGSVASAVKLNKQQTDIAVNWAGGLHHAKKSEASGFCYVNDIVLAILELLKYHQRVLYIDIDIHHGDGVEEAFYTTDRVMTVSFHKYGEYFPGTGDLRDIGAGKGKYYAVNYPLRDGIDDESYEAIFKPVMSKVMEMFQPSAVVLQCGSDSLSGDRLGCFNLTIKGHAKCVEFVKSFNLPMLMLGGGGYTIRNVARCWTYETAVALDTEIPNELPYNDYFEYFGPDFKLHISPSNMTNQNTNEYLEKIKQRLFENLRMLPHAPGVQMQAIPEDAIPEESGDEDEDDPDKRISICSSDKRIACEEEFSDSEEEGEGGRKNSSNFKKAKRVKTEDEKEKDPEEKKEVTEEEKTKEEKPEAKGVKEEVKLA
Protocol: as §6, §7

[4] = system: human myeloid progenitors (CFU-GM); assay: Myeloid CFU assay in human bone marrow cells; type: cell-based
Protocol: (§8) Compounds were tested to evaluate the potential effects on human erythroid and myeloid progenitors using colony forming cell assays. Clonogenic progenitors of human erythroid (CFU-E, BFU-E), granulocyte-monocyte (CFU-GM) and multipotential (CFU-GEMM) lineages were assessed in a semi-solid methylcellulose-based media formulation containing rhlL-3 (10 ng/mL), rhGM-SCF (10 ng/mL), rhSCF (50 ng/mL) and Epo (3 U/mL).
(§9) Normal human bone marrow light density cells derived from normal bone marrow (NorCal Biologics, California) and qualified at ReachBio, were stored in the gaseous phase of liquid nitrogen (−152° C.) until required for the assay. On the day of the experiment, the cells were thawed rapidly, the contents of each vial was diluted in 10 mL of Iscove's modified Dulbecco's medium containing 10% fetal bovine serum (IMDM+10% FBS) and washed by centrifugation (approximately 1200 r.p.m. for 10 minutes, room temperature). The supernatant was discarded and the cell pellets resuspended in a known volume of IMDM+10% FBS. A cell count (3% glacial acetic acid) and viability assessment (trypan blue exclusion test) was performed for the bone marrow sample.
(§10) On the day of the experiment, the compounds were dissolved in DMSO to a stock concentration of 10 mM. Serial dilutions were prepared from the stock concentration to achieve concentrations of 2 and 0.4 mM. When added to the methylcellulose-based media at 1:1000 (v/v), the final test concentrations of 10, 2 and 0.4 μM were achieved. Additionally, 5-FU was evaluated at 1.0, 0.1 and 0.01 μg/mL.
(§11) Clonogenic progenitors of the human erythroid (CFU-E and BFU-E) and myeloid (CFU-GM) lineages were set up in the methylcellulose-based media formulations described above. All compounds were added to the medium to give the final desired concentrations (10, 2 and 0.4 μM). 5-Fluorouracil (Sigma Aldrich) was used as a positive control for progenitor proliferation (inhibition of colony growth) and was introduced to the human bone marrow cultures at 1.0, 0.1, and 0.01 μg/mL. Solvent control cultures (containing no compound but 0.1% DMSO) as well as standard controls (containing no compound and no DMSO) were also initiated.
(§12) Human myeloid and erythroid progenitor assays were initiated at 2.0×10^4 cells per culture. Following 14 days in culture, myeloid and erythroid colonies were assessed microscopically and scored by trained personnel. The colonies were divided into the following categories based on size and morphology: CFU-E, BFU-E, CFU-GM and CFU-GEMM.
(§13) The mean±one standard deviation of three replicate cultures was calculated for progenitors of each category (CFU-E, BFU-E, etc.). Two-tailed t-tests were performed to assess if there was a difference in the number of colonies generated between solvent control and treated cultures. Due to the potential subjectivity of colony enumeration, a p value of less than 0.01 is deemed significant. To calculate the concentration of 50% inhibition of colony growth (IC50) for each compound, a dose response curve was generated plotting the log of the compound concentration versus the percentage of control colony growth using XLfit software (IDBS). The concentration of 50% inhibition of colony growth (IC50) was calculated based on the sigmoid curve fit using Dose-Response, One-Site Model formula: y=A+[(B−A)/(1+((C/x)^D))], where A=the initial value (baseline response), B=maximum response, C=center (drug concentration that provokes a response halfway between A and B) and D=slope of the curve at midpoint. Further, plots and additional dose response curves were generated using GraphPad Prism 7.0.
(§14) Erythroid (CFU-E and BFU-E), myeloid (CFU-GM) and multi-potential (CFU-GEMM) colony enumeration was performed by trained personnel. The distribution of colony types as well as general colony and cellular morphology was analyzed. For statistical analysis colony numbers in compound treated cultures were compared to the solvent control cultures. […]

[5] = system: human erythroid progenitors (CFU-E, BFU-E); assay: Erythroid CFU assay in human bone marrow cells; type: cell-based
Protocol: as §8, §9, §10, §11, §12, §13, §14

[6] = 10 μM, 14 days culture, human bone marrow cells

T1 sequence (P08684 whole entry): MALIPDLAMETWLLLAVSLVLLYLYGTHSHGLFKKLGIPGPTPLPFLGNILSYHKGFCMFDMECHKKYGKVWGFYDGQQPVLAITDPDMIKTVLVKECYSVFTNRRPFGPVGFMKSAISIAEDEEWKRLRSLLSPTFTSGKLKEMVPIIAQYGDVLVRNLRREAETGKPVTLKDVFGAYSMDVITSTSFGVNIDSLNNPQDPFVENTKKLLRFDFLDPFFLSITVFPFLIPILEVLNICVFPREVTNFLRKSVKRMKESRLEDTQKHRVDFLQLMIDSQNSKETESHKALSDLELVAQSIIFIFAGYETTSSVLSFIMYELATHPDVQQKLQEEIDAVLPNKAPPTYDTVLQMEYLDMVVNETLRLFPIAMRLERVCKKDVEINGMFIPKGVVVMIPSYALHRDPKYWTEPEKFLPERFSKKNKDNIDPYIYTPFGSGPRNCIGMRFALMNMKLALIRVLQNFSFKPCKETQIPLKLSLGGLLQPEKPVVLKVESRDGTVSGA

inhibition at 5 min, 10 µM (CYP3A4) [%] | solubility (in words) [1] | solubility at 1 h [1] [µM] | IC50 (HDAC2 [2]) [nM] | inhibition of CYP2D6 (in words) (CYP2D6) | inhibition at 10 min, 10 µM (CYP2D6) [%] | IC50 (HDAC2 [3]) [nM] | IC50 (HDAC1) [nM] | inhibition of CYP3A4 (in words) (CYP3A4; 10 μM) | CFU % Control remaining @ 10 μM Myeloid [4, 6] [%] | CFU % Control remaining @ 10 μM Erythroid [5, 6] [%] | inhibitory effects on myeloid colony growth (positive control, in words) ([4]; 1.0, 0.1 and 0.01 μg/mL) | inhibitory effects on erythroid colony growth (positive control, in words) ([5]; 1.0, 0.1 and 0.01 μg/mL) | Structure (SMILES)
33 | – | 121 (≈ 47.6 µg/mL) | 666 | – | 2 | – | – | – | 59 | 23 | – | – | COCc1cc2c(cn1)CN(C(=O)Nc1nc(-c3ccc(F)cc3)ccc1N)C2 [Comparator I]
– | – | – | – | – | – | – | – | – | – | – | exactly as expected | exactly as expected | O=c1[nH]cc(F)c(=O)[nH]1 [Compound 5-FU, 5-Fluorouracil]

Continued, molecule first:

Structure (SMILES) | inhibition at 5 min, 10 µM (CYP3A4) [%] | solubility (in words) [1] | solubility at 1 h [1] [µM] | IC50 (HDAC2 [2]) [nM] | inhibition of CYP2D6 (in words) (CYP2D6) | inhibition at 10 min, 10 µM (CYP2D6) [%] | IC50 (HDAC2 [3]) [nM] | IC50 (HDAC1) [nM] | inhibition of CYP3A4 (in words) (CYP3A4; 10 μM) | CFU % Control remaining @ 10 μM Myeloid [4, 6] [%] | CFU % Control remaining @ 10 μM Erythroid [5, 6] [%] | inhibitory effects on myeloid colony growth (positive control, in words) ([4]; 1.0, 0.1 and 0.01 μg/mL) | inhibitory effects on erythroid colony growth (positive control, in words) ([5]; 1.0, 0.1 and 0.01 μg/mL)
Nc1ccc(-c2ccc(F)cc2)nc1NC(=O)N1Cc2cccnc2C1 [Comparator F] | -4 | extremely low | 1 (≈ 0.349 µg/mL) | 394 | high levels | 62 | 304 | 79 | – | – | – | – | –
Nc1ccc(-c2ccc(F)cc2)nc1NC(=O)N1Cc2ccncc2C1 [Comparator G] | 65 | – | 55 (≈ 19.2 µg/mL) | 639 | inhibited at high levels | 94 | 335 | 143 | inhibited at high levels | – | – | – | –
Cc1cc2c(cn1)CN(C(=O)Nc1nc(-c3ccc(F)cc3)ccc1N)C2 [Comparator H] | 28 | – | 78 (≈ 28.3 µg/mL) | 621 | – | 57 | 214 | 90 | – | – | – | – | –

Source: patent US11286256B2, “Bicyclic inhibitors of histone deacetylase” (Alkermes, Inc., priority 2017, dated 2022)
